Target: T1, AlaRS R326W binding to Nrp1 (Homo sapiens, UniProt P49588, R326W)
T1 construct: expressed in transfected cells
T1 sequence (P49588 1-968 R326W): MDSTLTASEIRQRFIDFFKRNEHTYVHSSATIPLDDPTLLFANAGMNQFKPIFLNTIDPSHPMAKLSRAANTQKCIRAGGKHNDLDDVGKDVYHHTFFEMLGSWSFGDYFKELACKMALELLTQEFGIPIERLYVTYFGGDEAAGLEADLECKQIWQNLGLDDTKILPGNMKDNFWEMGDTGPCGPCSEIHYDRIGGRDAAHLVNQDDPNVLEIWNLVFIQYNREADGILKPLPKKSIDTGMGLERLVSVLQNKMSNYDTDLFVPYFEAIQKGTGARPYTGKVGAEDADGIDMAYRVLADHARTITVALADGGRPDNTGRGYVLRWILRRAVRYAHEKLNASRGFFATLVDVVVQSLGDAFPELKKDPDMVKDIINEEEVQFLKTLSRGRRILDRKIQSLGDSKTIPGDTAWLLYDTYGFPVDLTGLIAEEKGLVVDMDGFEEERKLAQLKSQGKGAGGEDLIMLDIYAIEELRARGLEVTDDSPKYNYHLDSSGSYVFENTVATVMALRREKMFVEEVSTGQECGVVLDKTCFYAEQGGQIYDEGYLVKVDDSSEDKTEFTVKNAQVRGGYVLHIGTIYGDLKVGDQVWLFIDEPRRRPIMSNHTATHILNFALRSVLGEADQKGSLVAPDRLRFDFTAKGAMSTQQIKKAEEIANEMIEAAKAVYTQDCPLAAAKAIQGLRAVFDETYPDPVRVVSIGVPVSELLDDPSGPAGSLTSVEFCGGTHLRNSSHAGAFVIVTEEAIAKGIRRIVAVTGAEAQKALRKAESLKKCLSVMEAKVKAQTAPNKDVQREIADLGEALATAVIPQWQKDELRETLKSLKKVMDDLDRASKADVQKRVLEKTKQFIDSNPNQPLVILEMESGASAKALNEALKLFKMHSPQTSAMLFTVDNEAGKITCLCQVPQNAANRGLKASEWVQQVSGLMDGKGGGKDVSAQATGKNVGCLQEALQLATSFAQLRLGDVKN
Experiment: Co-IP of HA-AlaRS mutant with Nrp1 in transfected cells
Format: cell-based
Details: 20 µM Tanshinone I for 24 h, ImageJ, average of three repeats
Description: To further investigate whether Tanshinone I-induced conformational changes in AlaRS CMT mutants affect their interaction with Nrp1, Co-IP experiments were performed in cells treated with Tanshinone I. By comparing Co-IP results obtained before and after treatment, we assessed the influence of the drug on the binding strength and mode between the AlaRS CMT mutants and Nrp1. […] To confirm the direct effect of Tanshinone I on the interaction between AlaRS CMT mutants and Nrp1, pull-down experiments were performed. […] Given that the interaction between AlaRS mutants and Nrp1 is associated with disease progression in CMT, the ability of Tanshinone I to disrupt this binding highlights its potential to intervene in the pathogenic mechanisms of these diseases.
Figure 7 The impact of Tanshinone I on the interaction between AlaRS mutants and Nrp1. (A) Co-IP assays were conducted to assess the binding between HA-AlaRS mutants and Nrp1, both with and without treatment with 20 µM Tanshinone I for 24 h. […] (C) Pull down assay was performed to detect the binding between AlaRS mutants and GST-Nrp1 b1 with or without 20 µM Tanshinone I. (D) Relative quantification statistics of the AlaRS mutants pulled down from the GST pull down experiments after Tanshinone I treatment were performed using ImageJ. (E) The cell viability of 293T and NSC34 cells treated with different concentrations of Tanshinone I was assessed using the CCK-8 assay over a 24 h period. TEXT PRINTED IN THE PICTURE: (B) Tanshinone I: Mean density band (N71Y): 0.60; Mean density band (G102R): 0.53; Mean density band (R326W): 0.50; Mean density band (R329H): 0.50; Mean density band (E337K): 0.62 | (D) Tanshinone I: Mean density band (N71Y): 0.82; Mean density band (G102R): 0.76; Mean density band (R326W): 0.84; Mean density band (R329H): 0.84; Mean density band (E337K): 0.90
Total protein was extracted from cells using RIPA buffer (50 mM Tris-HCl pH 7.4, 150 mM NaCl, 1% NP40, 1 mM EDTA) supplemented with a protease and phosphatase inhibitor cocktail (Roche, Basel, Switzerland). After SDS-PAGE, the protein on the gel was transferred to a PVDF membrane (Bio-Rad, Hercules, CA, USA) and then blocked with 5% non-fat dry milk in TBST for 1 h. Then, the membranes were incubated with the indicated primary antibodies and corresponding HRP-conjugated secondary antibodies. Signals were detected using the Bio-Rad ChemiDoc system (Bio-Rad, Shanghai, China). The following antibodies were used: Flag (Ray antibody biotech, Beijing, China, 1:3000), HA (Ray antibody biotech, Beijing, China, 1:3000), and GAPDH (Ray antibody biotech, Beijing, China, 1:5000).
To detect the binding of Nrp1 and AlaRS mutants in cells, whole-cell lysates (500 μg) were treated overnight with 2 μg of anti-Flag antibody in RIPA buffer. Next, Protein A/G agarose beads (#sc-2003, Santa Cruz Biotechnology, Santa Cruz, CA, USA) were applied to the lysates and the samples were further treated for 8–12 h with rotation. Samples were washed three times with RIPA buffer. Subsequently, the immunoprecipitations were resuspended into 2 × SDS-loading buffer. The samples were then boiled for 10 min and detected using Western blot. The experiment was repeated three times.

Mean density band (R326W), relative quantification of AlaRS mutant immunoprecipitated: 0.50
Structure (SMILES): Cc1coc2c1C(=O)C(=O)c1c-2ccc2c(C)cccc12 [Tanshinone I]
